Reference: patent publication US12121512B2, “Anti-fungal agent” (priority 2019, dated 2024)
Values after ≈ are worked out from the molar mass of the structure shown.

Tests used:
[1] = tested on: Cryptococcus neoformans var. grubii clinical isolates and multi-azole resistant strains; assay: microbe, parasite or virus in culture; assay type: cell-based; details: E-test; for MIC range: 14 isolates (Nos. 1-14); for MIC: Cryptococcus neoformans
Excerpt: Six isolates of cryptococcus were obtained from skin-infected cats and five from systemically infected cats, for a total of 11 strains.
(§1) Three isolates of cryptococcus were acquired from skin-infected humans.
(§2) All of the above-acquired isolates were Cryptococcus neoformans var. grubii strains (type A).
(§3) Further, as described below, 3 multidrug-resistant strains resistant to fluconazole (FLCZ) and voriconazole (VRCZ) as azole-based antifungal agents were acquired.
(§4) Thereafter, 12 colonies generated on the plate were inoculated on Sabouraud glucose agar medium containing 5 μg/ml of VRCZ. This was cultured at room temperature for 10 days, and the obtained colonies were further subcultured, to obtain 3 azole-based multidrug-resistant strains.
Sensitivity to fluconazole (FLCZ), itraconazole (ITCZ) and voriconazole (VRCZ) was evaluated using the E-test. […] E-test gradient strips were purchased from AB BIODISK. The MICs for FLCZ, ITCZ and VRCZ were determined after culturing at 35° C. for 72 hours. Each isolate was tested twice at shifted times, and each test included twice measurements.

[2] = tested on: Cryptococcus neoformans var. grubii clinical isolates and multi-azole resistant strains; assay: CLSI M27-A3 broth microdilution MIC assay; assay type: cell-based; details: for MIC: Cryptococcus neoformans
Excerpt: Six isolates of cryptococcus were obtained from skin-infected cats and five from systemically infected cats, for a total of 11 strains. One strain of cat skin cryptococcus and one strain of cat systemic cryptococcus were fluconazole-resistant.
as §1, §2, §3
as §4, with “Clinically separated fluconazole (FLCZ) resistant Cryptococcus neoformans cells (2.3×10^5) were inoculated on Sabouraud glucose agar medium containing 3 μg/ml of voriconazole (VRCZ), and cultured at room temperature for 7 days. Thereafter,” for “Thereafter,”
The strains obtained in Example 1 were maintained on Sabouraud glucose agar medium until the test of sensitivity to antifungal compounds.
Sensitivity to ravuconazole (RVCZ) was determined according to the CLSI M27-A3 guideline using broth microdilution assay. The minimum inhibitory concentration (MIC) was measured after culturing at 35° C. for 72 hours. MIC was defined as the lowest concentration that induces significant inhibition of growth (inhibition of about 50% or more).
CLSI M27-A3 test and E-test MIC assay were performed using Candida parapsilosis ATCC 22019 and Candida kruzei ATCC 6258 purchased from ATCC as controls. As a result, a high correlation was observed between the MIC results of the azole-based drugs obtained in the CLSI M27-A3 test and the E-test, so the results of both were compared.

[3] = 72 h, Strain No. 1, Feline cutaneous cryptococcosis, 35° C.
[4] = 72 h, Strain No. 2, Feline systemic cryptococcosis, 35° C.
[5] = 72 h, Strain No. 3, Feline systemic cryptococcosis, 35° C.
[6] = 72 h, Strain No. 4, Feline cutaneous cryptococcosis, 35° C.
[7] = 72 h, Strain No. 5, Feline cutaneous cryptococcosis, 35° C.
[8] = 72 h, Strain No. 6, Feline systemic cryptococcosis, 35° C.
[9] = 72 h, Strain No. 7, Feline systemic cryptococcosis, 35° C.
[10] = 72 h, Strain No. 8 (FLCZ resistant strain), Feline systemic cryptococcosis, 35° C.
[11] = 72 h, Strain No. 9, Feline systemic cryptococcosis, 35° C.
[12] = 72 h, Strain No. 10, Feline cutaneous cryptococcosis, 35° C.
[13] = 72 h, Strain No. 11, Human cutaneous cryptococcosis, 35° C.
[14] = 72 h, Strain No. 12, Human cutaneous cryptococcosis, 35° C.
[15] = 72 h, Strain No. 13, Human cutaneous cryptococcosis, 35° C.
[16] = 72 h, Strain No. 14 (FLCZ resistant strain), Feline cutaneous cryptococcosis, 35° C.
[17] = 72 h, Strain No. 15, Multi-azole resistance strain, 35° C.
[18] = 72 h, Strain No. 16, Multi-azole resistance strain, 35° C.
[19] = 72 h, Strain No. 17, Multi-azole resistance strain, 35° C.
[20] = azole-based multidrug-resistant strains (Nos. 15-17)
[21] = read-out: average MIC, 14 isolates (Nos. 1-14)

Row | Compound | MIC range [1] [ng/mL] | MIC [1, 3] [µg/mL] | MIC [1, 4] [µg/mL] | MIC [1, 5] [µg/mL] | MIC [1, 6] [µg/mL] | MIC [1, 7] [µg/mL] | MIC [1, 8] [µg/mL] | MIC [1, 9] [µg/mL] | MIC [1, 10] [µg/mL] | MIC [1, 11] [µg/mL] | MIC [1, 12] [µg/mL] | MIC [1, 13] [µg/mL] | MIC [1, 14] [µg/mL] | MIC [1, 15] [µg/mL] | MIC [1, 16] [µg/mL] | MIC [1, 17] [µg/mL] | MIC [1, 18] [µg/mL] | MIC [1, 19] [µg/mL] | MIC [1, 20] [µg/mL] | MIC [1, 21] [µg/mL] | also measured
1 | OC(Cn1cncn1)(Cn1cncn1)c1ccc(F)cc1F [FLCZ, fluconazole] | <16 to 128000 | 3 (≈ 9.8 µM) | < 0.016 | 6 (≈ 19.6 µM) | 16 (≈ 52.2 µM) | 32 (≈ 104 µM) | 2 (≈ 6.53 µM) | 1.5 (≈ 4.9 µM) | > 256 | 1.5 (≈ 4.9 µM) | 14 (≈ 45.7 µM) | 1.5 (≈ 4.9 µM) | 1.5 (≈ 4.9 µM) | 0.75 (≈ 2.45 µM) | 128 (≈ 418 µM) | > 256 | > 256 | > 256 | > 256 | 17.3 (≈ 56.5 µM) | –
2 | CCC(C)n1ncn(-c2ccc(N3CCN(c4ccc(OCC5COC(Cn6cncn6)(c6ccc(Cl)cc6Cl)O5)cc4)CC3)cc2)c1=O (stereo not shown) [ITCZ, itraconazole] | <2 to 750 | 0.047 (≈ 0.0666 µM) | 0.002 (≈ 0.00283 µM) | 0.23 (≈ 0.326 µM) | 0.018 (≈ 0.0255 µM) | 0.5 (≈ 0.709 µM) | 0.064 (≈ 0.0907 µM) | 0.38 (≈ 0.539 µM) | 0.25 (≈ 0.354 µM) | 0.23 (≈ 0.326 µM) | 0.75 (≈ 1.06 µM) | 0.19 (≈ 0.269 µM) | 0.125 (≈ 0.177 µM) | 0.125 (≈ 0.177 µM) | 0.38 (≈ 0.539 µM) | > 32 | > 32 | > 32 | > 32 | 0.235 (≈ 0.333 µM) | –
3 | C[C@@H](c1nc(-c2ccc(C#N)cc2)cs1)[C@](O)(Cn1cncn1)c1ccc(F)cc1F [RVCZ, ravuconazole] | – | – | – | – | – | – | – | – | – | – | – | – | – | – | – | – | – | – | – | – | MIC range ([2]; 14 isolates (Nos. 1-14), CLSI M27-A3): <3.125 to 250 ng/mL; MIC ([2]; 72 h, Strain No. 1, Feline cutaneous cryptococcosis, CLSI M27-A3, 35° C.): 0.0312 µg/mL (≈ 0.0714 µM); MIC ([2]; 72 h, Strain No. 2, Feline systemic cryptococcosis, CLSI M27-A3, 35° C.): 0.0312 µg/mL (≈ 0.0714 µM); MIC ([2]; 72 h, Strain No. 3, Feline systemic cryptococcosis, CLSI M27-A3, 35° C.): 0.0312 µg/mL (≈ 0.0714 µM); MIC ([2]; 72 h, Strain No. 4, Feline cutaneous cryptococcosis, CLSI M27-A3, 35° C.): 0.0625 µg/mL (≈ 0.143 µM); MIC ([2]; 72 h, Strain No. 5, Feline cutaneous cryptococcosis, CLSI M27-A3, 35° C.): 0.0625 µg/mL (≈ 0.143 µM); MIC ([2]; 72 h, Strain No. 6, Feline systemic cryptococcosis, CLSI M27-A3, 35° C.): 0.125 µg/mL (≈ 0.286 µM); MIC ([2]; 72 h, Strain No. 7, Feline systemic cryptococcosis, CLSI M27-A3, 35° C.): 0.0625 µg/mL (≈ 0.143 µM); MIC ([2]; 72 h, Strain No. 8 (FLCZ resistant strain), Feline systemic cryptococcosis, CLSI M27-A3, 35° C.): 0.125 µg/mL (≈ 0.286 µM); MIC ([2]; 72 h, Strain No. 9, Feline systemic cryptococcosis, CLSI M27-A3, 35° C.): 0.0312 µg/mL (≈ 0.0714 µM); MIC ([2]; 72 h, Strain No. 10, Feline cutaneous cryptococcosis, CLSI M27-A3, 35° C.): 0.125 µg/mL (≈ 0.286 µM); MIC ([2]; 72 h, Strain No. 11, Human cutaneous cryptococcosis, CLSI M27-A3, 35° C.): 0.0312 µg/mL (≈ 0.0714 µM); MIC ([2]; 72 h, Strain No. 12, Human cutaneous cryptococcosis, CLSI M27-A3, 35° C.): 0.0312 µg/mL (≈ 0.0714 µM); MIC ([2]; 72 h, Strain No. 13, Human cutaneous cryptococcosis, CLSI M27-A3, 35° C.): 0.0312 µg/mL (≈ 0.0714 µM); MIC ([2]; 72 h, Strain No. 14 (FLCZ resistant strain), Feline cutaneous cryptococcosis, CLSI M27-A3, 35° C.): 0.125 µg/mL (≈ 0.286 µM); MIC ([2]; 72 h, Strain No. 15, Multi-azole resistance strain, CLSI M27-A3, 35° C.): 0.5 µg/mL (≈ 1.14 µM); MIC ([2]; 72 h, Strain No. 16, Multi-azole resistance strain, CLSI M27-A3, 35° C.): 0.5 µg/mL (≈ 1.14 µM); MIC ([2]; 72 h, Strain No. 17, Multi-azole resistance strain, CLSI M27-A3, 35° C.): 0.25 µg/mL (≈ 0.571 µM); MIC ([2]; azole-based multidrug-resistant strains (Nos. 15-17), CLSI M27-A3): 0.25 to 0.5 µg/mL (≈ 0.571 to 1.14 µM); MIC ([2]; read-out: average MIC, 14 isolates (Nos. 1-14), CLSI M27-A3): 0.0376 µg/mL (≈ 0.0859 µM)
4 | C[C@@H](c1ncncc1F)[C@](O)(Cn1cncn1)c1ccc(F)cc1F [VRCZ, voriconazole] | <2 to 125 | 0.008 (≈ 0.0229 µM) | < 0.002 | 0.032 (≈ 0.0916 µM) | 0.064 (≈ 0.183 µM) | – | 0.047 (≈ 0.135 µM) | 0.032 (≈ 0.0916 µM) | 0.094 (≈ 0.269 µM) | 0.012 (≈ 0.0344 µM) | 0.023 (≈ 0.0658 µM) | 0.003 (≈ 0.00859 µM) | 0.006 (≈ 0.0172 µM) | 0.003 (≈ 0.00859 µM) | 0.023 (≈ 0.0658 µM) | 12 (≈ 34.4 µM) | 8 (≈ 22.9 µM) | 6 (≈ 17.2 µM) | 6 to 12 (≈ 17.2 to 34.4 µM) | 0.036 (≈ 0.103 µM) | –
